From US10314803B2, “Pharmaceutical composition comprising eicosapentaenoic acid and nicotinic acid and methods of using same” (Amarin Pharmaceuticals Ireland Limited, priority 2008, dated 2019) come the findings set out here.

The subject of the data set is RBC arachidonic acid. The data set is described as follows: Red blood cell (RBC) EPA incorporation and arachidonic acid analysis in patients given ethyl-EPA. In kind it is in vivo, human. As to conditions: patients, 0.5, 1, 2 or 4 g of 97% pure ethyl-EPA/day for 12 weeks; FIG. 1, average of several clinical studies. On the procedure:
An analysis was performed to assess the impact of red blood cell (RBC) EPA incorporation on arachidonic acid formation. In various studies, patients were randomized, on a double-blind basis, to receive either placebo (liquid paraffin) or 0.5 1, 2 or 4 g of 97% pure ethyl-EPA/day for 12 weeks. All the doses were administered in eight identical appearing capsules. RBCs were analyzed for EPA and AA following in general the methodology of Manku et al. M. S. Manku, D. F. Horrobin, Y. S. Huang and N. Morse, Fatty acids in plasma and red cell membranes in normal humans. Lipids 18 (1983), pp. 906-908).
Venous blood was collected into a tube pretreated with EDTA and centrifuged at 1500 gav for 15 min. The plasma layer and the buffy coat were separated off and the red cells washed with an equal volume of 0.9% saline. Samples were stored at −80° C. prior to analysis. On thawing, the RBCs were suspended in NaCL/H2SO4aq. (17 mmol/l NaCl, 1 mmol/l Sulfuric acid, 1.8 ml), then shaken with methanol (3 ml). Chloroform (6 ml) and C17:O internal standard were added and the sample was stirred vigorously using a vortex mixer. […] The resulting methyl esters of the fatty acids were separated and measured using a Hewlett-Packard HP5890 Series II Plus Gas chromatograph (cp-wax 52CB 25 m capillary column, Chrompack UK). […]

With `CC/C=C\C/C=C\C/C=C\C/C=C\C/C=C\CCCC(=O)OCC` [EPA, eicosapentaenoic acid ethyl ester], the “RBC EPA” value is recorded as “increased”.
